# Patent US10849901B2, “Arf6 inhibitors and methods of synthesis and use thereof” (Navigen, Inc., priority 2014, dated 2020)
# Target: Arf6 (Homo sapiens (Human), UniProt P62330)
# Experiment: Fluorometric assay for Arf6 nucleotide exchange catalyzed by ARNO Sec7 domain (GTP-BODIPY FL)
# Type: biochemical
# Conditions: 20 nM Arf6 assay; read-out: IC50 (μM) 20 nM Arf6
# Protocol: FIGS. 1A-1D: Fluorometric high throughput assay for Arf6 nucleotide exchange catalyzed by ARNO Sec7 domain. FIG. 1A: Principle of the assay. FIG. 1B: SDS-PAGE analysis of N-terminally His-tagged Arf6(14-175) and ARNO(50-255) purified from the E. coli cultures by immobilized metal affinity chromatography. FIG. 1C: Correlation between signal intensity and ARNO concentration. The assay was performed using 50 mM Tris-HCl, pH 7.5, 1 mM MgCl2, 0.01% TX-100, 1% DMSO, 50 nM GTP-BODIPY FL, supplemented with ARNO-Sec7 at indicated concentrations in the absence or in the presence of 0.2 μM Arf6-GDP. Fluorescence intensities were monitored using a Synergy 4 plate reader (BioTek) at the excitation and emission wavelengths of 490 nm and 520 nm, respectively. FIG. 1D: Time course of apparent inhibitory potency of GDP. The assay was performed in automated mode using a Matrix PlateMate liquid handler.
# The primary biochemical assay uses a fluorometric assay for monitoring the replacement of bound nucleotide with a fluorogenic GTP derivative bearing a BODIPY FL moiety, allowing for the identification of compounds that can inhibit this exchange (see FIG. 1A). In certain embodiments, the methods disclosed herein may exploit the reduction of intramolecular fluorescence quenching of the modified nucleotide upon its binding to the target protein (see, e.g., McEwen D P, Gee K R, Kang H C, Neubig R R. Fluorescent BODIPY-GTP analogs: real-time measurement of nucleotide binding to G proteins. Anal Biochem. 2001 Apr. 1; 291(1): 109-17).
# The fluorometric assay formatted for 96-well microtiter plates has passed quality control based on the following criteria: i) S/B ratio of 4-fold and Z′-factor of 0.61; ii) linear correlation between signal intensity and ARNO concentration (see FIG. 1C); iii) sufficiently reproducible inhibitory effects of the reference inhibitor GDP for assay durations up to at least 1 hour (see FIG. 1D); and iv) lack of apparent fluorescence quenchers among 400 randomly selected compounds. The assay is amenable to automation with a throughput of approximately 5,000 data points per 8 hours.
# Chain of Arf6 (P62330 14-175): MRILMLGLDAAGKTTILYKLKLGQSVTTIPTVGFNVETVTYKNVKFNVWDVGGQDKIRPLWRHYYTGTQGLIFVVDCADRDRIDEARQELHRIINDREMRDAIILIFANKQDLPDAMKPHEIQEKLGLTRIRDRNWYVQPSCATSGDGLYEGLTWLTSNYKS
row,SMILES,IC50 [µM]
1,CC(c1ccccc1)c1nn2c(=O)cc(-c3ccc([N+](=O)[O-])cc3)[nH]c2c1-c1ccc(Cl)cc1 (stereo not shown) [Compound 28],1.4
2,O=c1cc(-c2ccccc2)[nH]c2c(-c3ccc(Cl)cc3)c(Cc3ccccc3)nn12 [Compound 29],1.5
3,Cc1nn2c(=O)cc(-c3ccc([N+](=O)[O-])cc3)[nH]c2c1-c1ccc(Oc2ccccc2)cc1 [Compound 30],1.5
4,COc1ccc(-c2cccc(-c3cc(=O)n4nc(C(F)(F)F)c(-c5ccc(Cl)cc5)c4[nH]3)c2)cn1 [Compound 31],1.5
5,CC(C)(C)c1nn2c(=O)cc(-c3ccccc3C#N)[nH]c2c1-c1ccc(Cl)cc1 [Compound 32],1.5
6,O=c1cc(-c2ccc([N+](=O)[O-])cc2)[nH]c2c(-c3ccc(Cl)cc3)c(C(F)(F)F)nn12 [Compound 33],1.6
7,O=c1cc(-c2cccc(Br)c2)[nH]c2c(-c3ccc(Cl)cc3)c(C(F)(F)F)nn12 [Compound 34],1.6
8,CC(C)CC(=O)Nc1ccc(-c2cc(=O)n3nc(C(F)(F)F)c(-c4ccc(Cl)cc4)c3[nH]2)cc1 [Compound 35],1.7
9,Cc1nn2c(=O)cc(-c3ccc([N+](=O)[O-])cc3)[nH]c2c1-c1ccc(Cl)cc1Cl [Compound 36],1.7
10,Cc1nn2c(=O)cc(-c3ccc([N+](=O)[O-])cc3)[nH]c2c1-c1ccc(Cl)cc1 [Compound 39],1.9
11,N#Cc1ccc(-c2cc(=O)n3nc(C(F)(F)F)c(-c4ccc(Cl)cc4)c3[nH]2)cc1 [Compound 40],1.9
12,Cc1nn2c(=O)cc(-c3ccc(NC(=O)Cc4ccccc4)cc3)[nH]c2c1-c1ccc(Cl)cc1 [Compound 41],1.9
13,Cc1nn2c(=O)cc(-c3ccc(NC(=O)NCc4ccccc4)cc3)[nH]c2c1-c1ccc(Cl)cc1 [Compound 42],2.1
14,Cc1nn2c(=O)cc(-c3ccc([N+](=O)[O-])cc3)[nH]c2c1-c1cc(Cl)cc(Cl)c1 [Compound 43],2.1
15,CC(C)(C)c1nn2c(=O)cc(-c3cccc(C#N)c3)[nH]c2c1-c1ccc(Cl)cc1 [Compound 44],2.2
16,CC(c1ccccc1)c1cc(=O)n2nc(C(F)(F)F)c(-c3ccc(Cl)cc3)c2[nH]1 (stereo not shown) [Compound 45],2.3
17,O=c1cc(-c2ccc([N+](=O)[O-])cc2)[nH]c2c(-c3ccc(Cl)cc3)c(Cc3ccncc3)nn12 [Compound 46],2.4
18,O=c1cc(-c2ccc(-c3ccncc3)cc2)[nH]c2c(-c3ccc(Cl)cc3)c(C(F)(F)F)nn12 [Compound 47],2.4
19,Cc1nn2c(=O)cc(-c3ccc(NC(=O)c4ccccc4)cc3)[nH]c2c1-c1ccc(Cl)cc1 [Compound 48],2.4
20,O=c1c(Cl)c(-c2ccccc2)[nH]c2c(-c3ccc(Cl)cc3)c(Cc3ccccc3)nn12 [Compound 49],2.5
21,CC(C)CC(=O)Nc1cccc(-c2cc(=O)n3nc(C(F)(F)F)c(-c4ccc(Cl)cc4)c3[nH]2)c1 [Compound 50],2.5
22,Cc1nn2c(=O)cc(-c3ccc([N+](=O)[O-])cc3)[nH]c2c1-c1cccc2ccccc12 [Compound 51],2.7
23,O=c1cc(-c2ccc([N+](=O)[O-])cc2)[nH]c2c(-c3ccc(Cl)cc3)c(Cc3cccnc3)nn12 [Compound 52],2.8
24,Cc1nn2c(=O)cc(-c3cccc(-c4cccnc4)c3)[nH]c2c1-c1ccc(Cl)cc1 [Compound 53],3
25,CSc1ccc(Cc2nn3c(=O)cc(-c4ccc([N+](=O)[O-])cc4)[nH]c3c2-c2ccc(Cl)cc2)cc1 [Compound 54],3
26,CN(C)C(=O)c1ccc(-c2cc(=O)n3nc(Cc4ccccc4)c(-c4ccc(Cl)cc4)c3[nH]2)cc1 [Compound 56],3.2
27,Cc1nn2c(=O)cc(-c3ccc([N+](=O)[O-])cc3)[nH]c2c1-c1cccc(Cl)c1Cl [Compound 57],3.2

row,SMILES,IC50 [µM]
1,N#Cc1ccc(-c2cc(=O)n3nc(C4CC4)c(-c4ccc(Cl)cc4)c3[nH]2)cc1 [Compound 58],3.2
2,CCC(=O)Nc1cccc(-c2cc(=O)n3nc(C(F)(F)F)c(-c4ccc(Cl)cc4)c3[nH]2)c1 [Compound 61],3.3
3,O=c1cc(-c2ccccc2Br)[nH]c2c(-c3ccc(Cl)cc3)c(C(F)(F)F)nn12 [Compound 62],3.3
4,O=c1cc(-c2ccc([N+](=O)[O-])cc2)[nH]c2c(-c3ccc(Cl)cc3)c(CC3CCOCC3)nn12 [Compound 63],3.6
5,NC(=O)c1ccc(-c2cc(=O)n3nc(Cc4ccccc4)c(-c4ccc(Cl)cc4)c3[nH]2)cc1 [Compound 66],3.7
6,CC(=O)Nc1ccc(-c2cc(=O)n3nc(C(F)(F)F)c(-c4ccc(Cl)cc4)c3[nH]2)cc1 [Compound 67],3.7
7,Cc1nn2c(=O)cc(-c3ccc(NS(=O)(=O)Cc4ccccc4)cc3)[nH]c2c1-c1ccc(Cl)cc1 [Compound 68],3.8
8,Cc1nc2c(=O)[nH]c(-c3ccc([N+](=O)[O-])cc3)nn2c1-c1ccc(Cl)cc1 [Compound 69],4
9,Cc1nn2c(=O)cc(-c3cccc(-c4ccncc4)c3)[nH]c2c1-c1ccc(Cl)cc1 [Compound 70],4.1
10,COC(=O)c1ccc(-c2cc(=O)n3nc(C4CC4)c(-c4ccc(Cl)cc4)c3[nH]2)cc1 [Compound 71],4.1
11,O=c1cc(-c2ccc([N+](=O)[O-])cc2)[nH]c2c(-c3ccccc3)c(C(F)(F)F)nn12 [Compound 72],4.2
12,Cc1nn2c(=O)cc(-c3ccc([N+](=O)[O-])cc3)[nH]c2c1-c1ccc(Cl)c(F)c1 [Compound 73],4.2
13,CC(=O)Nc1cccc(-c2cc(=O)n3nc(C(F)(F)F)c(-c4ccc(Cl)cc4)c3[nH]2)c1 [Compound 74],4.3
14,COCC(=O)Nc1ccc(-c2cc(=O)n3nc(C(F)(F)F)c(-c4ccc(Cl)cc4)c3[nH]2)cc1 [Compound 75],4.4
15,Cc1nn2c(=O)cc(-c3ccc([N+](=O)[O-])cc3)[nH]c2c1-c1ccc(Cl)cc1Cl [Compound 76],4.5
16,O=c1cc(-c2ccc([N+](=O)[O-])cc2)[nH]c2c(-c3ccc(Cl)cc3)c(C3CCOCC3)nn12 [Compound 77],5.1
17,Nc1ccc(-c2cc(=O)n3nc(C(F)(F)F)c(-c4ccc(Cl)cc4)c3[nH]2)cc1 [Compound 78],5.2
18,N#Cc1cccc(-c2cc(=O)n3nc(C4CC4)c(-c4ccc(Cl)cc4)c3[nH]2)c1 [Compound 79],5.5
19,O=c1cc(-c2ccc([N+](=O)[O-])cc2)[nH]c2c(-c3ccc(Cl)cc3)c(CN3CCOCC3)nn12 [Compound 80],5.9
20,Cc1nn2c(=O)cc(-c3ccc([N+](=O)[O-])cc3)[nH]c2c1Cc1ccc(Cl)cc1 [Compound 81],6
21,CC(C)(C)c1nn2c(=O)cc(-c3ccccn3)[nH]c2c1-c1ccc(Cl)cc1 [Compound 82],6
22,CC(C)(C)c1nn2c(=O)cc(-c3cccnc3)[nH]c2c1-c1ccc(Cl)cc1 [Compound 84],6.4
23,CC(C)(C)c1nn2c(=O)cc(-c3cccc(C(N)=O)c3)[nH]c2c1-c1ccc(Cl)cc1 [Compound 85],6.6
24,CC(C)(C)c1nn2c(=O)cc(-c3cccc(C(=O)O)c3)[nH]c2c1-c1ccc(Cl)cc1 [Compound 86],6.6
25,CC(C)(C)c1nn2c(=O)cc(-c3cccc(S(C)(=O)=O)c3)[nH]c2c1-c1ccc(Cl)cc1 [Compound 87],6.7
26,Nc1cccc(-c2cc(=O)n3nc(C(F)(F)F)c(-c4ccc(Cl)cc4)c3[nH]2)c1 [Compound 88],7
27,O=c1cc(-c2ccc([N+](=O)[O-])cc2)[nH]c2c(-c3ccc(Cl)cc3)c(CO)nn12 [Compound 90],7.8

# Same assay, conditions: 200 nM Arf6 assay; read-out: IC50 (μM) 200 nM Arf6
row,SMILES,IC50 [µM]
1,O=c1cc(-c2ccccc2)[nH]c2c(-c3ccc(Cl)cc3)c(Cc3ccccc3)nn12 [Compound 29],3.3
2,O=c1cc(-c2ccc([N+](=O)[O-])cc2)[nH]c2c(-c3ccc(Cl)cc3)c(C(F)(F)F)nn12 [Compound 33],2.6
3,O=c1cc(-c2ccc([N+](=O)[O-])cc2O)[nH]c2c(-c3ccc(Cl)cc3)c(Cc3ccccc3)nn12 [Compound 37],1.7
4,Cc1nn2c(=O)cc(-c3ccc([N+](=O)[O-])cc3)[nH]c2c1-c1ccc(Cl)cc1 [Compound 39],4.7
5,O=c1cc(-c2ccc([N+](=O)[O-])cc2)[nH]c2c(-c3ccc(Cl)cc3)c(Cc3ccncc3)nn12 [Compound 46],3.2
6,Cc1nn2c(=O)cc(-c3ccc([N+](=O)[O-])cc3)[nH]c2c1-c1cccc2ccccc12 [Compound 51],4.9
7,O=c1cc(-c2ccc([N+](=O)[O-])cc2)[nH]c2c(-c3ccc(Cl)cc3)c(Cc3cccnc3)nn12 [Compound 52],4.8
8,COc1ccc(-c2c(Cc3ccccc3)nn3c(=O)cc(-c4ccc([N+](=O)[O-])cc4)[nH]c23)cc1 [Compound 55],3.1
9,CN(C)C(=O)c1ccc(-c2cc(=O)n3nc(Cc4ccccc4)c(-c4ccc(Cl)cc4)c3[nH]2)cc1 [Compound 56],2.6
10,O=c1cc(-c2ccc([N+](=O)[O-])cc2)[nH]c2c(-c3ccccc3)c(Cc3ccccc3)nn12 [Compound 59],3.2
11,O=c1cc(-c2ccc([N+](=O)[O-])cc2)[nH]c2c(-c3ccc(Cl)cc3)cnn12 [Compound 60],3.2
12,COc1ccc(Cc2nn3c(=O)cc(-c4ccc([N+](=O)[O-])cc4)[nH]c3c2-c2ccccc2)cc1 [Compound 64],3.6
13,NC(=O)c1ccc(-c2cc(=O)n3nc(Cc4ccccc4)c(-c4ccc(Cl)cc4)c3[nH]2)cc1 [Compound 66],2.8
14,O=c1cc(-c2ccc([N+](=O)[O-])cc2)[nH]c2c(-c3ccccc3)c(C(F)(F)F)nn12 [Compound 72],3.8
15,COc1ccc(-c2cc(=O)n3nc(Cc4ccccc4)c(-c4ccc(Cl)cc4)c3[nH]2)cc1 [Compound 83],6.2
16,O=c1cc(Cc2ccccc2)[nH]c2c(-c3ccccc3)c(-c3ccccc3)nn12 [Compound 89],7
